The text below walks through data of publication PMC10176470, “Engaging a Non-catalytic Cysteine Residue Drives Potent and Selective Inhibition of Caspase-6” (Journal of the American Chemical Society, 2023).

Assay in all cases: SILAC proteomics / in-gel fluorescence, competition of probe 13-t labeling by 3a
For experiment [1], the target named is proteins of HEK293T cells transiently overexpressing caspase-6 (Homo sapiens, UniProt Q13838). The settings on record: Comp; protein DDX39B Q13838.
The target in experiment [2] is proteins of HEK293T cells transiently overexpressing caspase-6 (Homo sapiens, UniProt P38919). The settings on record: Comp; protein EIF4A3 P38919.
For experiment [3], the target named is proteins of HEK293T cells transiently overexpressing caspase-6 (Homo sapiens, UniProt P63261). The settings on record: Comp; protein ACTG1 P63261.
For experiment [4], the target named is proteins of HEK293T cells transiently overexpressing caspase-6 (Homo sapiens, UniProt P62280). The settings on record: Comp; protein RPS11 P62280.
The target of experiment [5] is T1, proteins of HEK293T cells transiently overexpressing caspase-6 (Homo sapiens, UniProt P04075).
T1 sequence (P04075 1-364): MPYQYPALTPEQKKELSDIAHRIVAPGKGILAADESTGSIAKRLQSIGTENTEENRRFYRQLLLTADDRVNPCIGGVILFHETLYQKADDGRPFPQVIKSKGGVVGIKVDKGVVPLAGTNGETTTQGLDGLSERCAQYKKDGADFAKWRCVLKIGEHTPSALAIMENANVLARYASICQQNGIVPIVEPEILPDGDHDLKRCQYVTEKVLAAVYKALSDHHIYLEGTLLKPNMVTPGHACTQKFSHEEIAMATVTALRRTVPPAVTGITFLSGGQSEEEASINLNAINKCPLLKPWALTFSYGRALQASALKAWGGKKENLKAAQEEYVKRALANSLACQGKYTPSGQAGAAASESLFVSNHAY
The settings on record: Comp; protein ALDOA P04075.

Experiment [6] addresses T2, proteins of HEK293T cells transiently overexpressing caspase-6 (Homo sapiens, UniProt P62258).
T2 sequence (P62258 1-255): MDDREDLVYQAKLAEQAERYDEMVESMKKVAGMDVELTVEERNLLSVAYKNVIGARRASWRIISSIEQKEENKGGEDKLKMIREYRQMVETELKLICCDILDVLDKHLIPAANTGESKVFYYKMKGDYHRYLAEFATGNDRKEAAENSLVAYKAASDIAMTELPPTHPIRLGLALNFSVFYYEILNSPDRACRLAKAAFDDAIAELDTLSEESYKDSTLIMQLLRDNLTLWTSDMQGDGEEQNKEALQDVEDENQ
The settings on record: Comp; protein YWHAE P62258.

In experiment [7] the target is proteins of HEK293T cells transiently overexpressing caspase-6 (Homo sapiens, UniProt P60900). The settings on record: Comp; protein PSMA6 P60900.
Experiment [8] deals with proteins of HEK293T cells transiently overexpressing caspase-6 (Homo sapiens, UniProt Q13151). The settings on record: Comp; protein HNRNPA0 Q13151.
Experiment [9] concerns the target proteins of HEK293T cells transiently overexpressing caspase-6 (Homo sapiens, UniProt P34897). The settings on record: Comp; protein SHMT2 P34897.
Experiment [10] deals with proteins of HEK293T cells transiently overexpressing caspase-6 (Homo sapiens, UniProt P62241). The note with it: Comp; protein RPS8 P62241.
Experiment [11] deals with T3, proteins of HEK293T cells transiently overexpressing caspase-6 (Homo sapiens, UniProt O43175).
T3 sequence (O43175 1-533): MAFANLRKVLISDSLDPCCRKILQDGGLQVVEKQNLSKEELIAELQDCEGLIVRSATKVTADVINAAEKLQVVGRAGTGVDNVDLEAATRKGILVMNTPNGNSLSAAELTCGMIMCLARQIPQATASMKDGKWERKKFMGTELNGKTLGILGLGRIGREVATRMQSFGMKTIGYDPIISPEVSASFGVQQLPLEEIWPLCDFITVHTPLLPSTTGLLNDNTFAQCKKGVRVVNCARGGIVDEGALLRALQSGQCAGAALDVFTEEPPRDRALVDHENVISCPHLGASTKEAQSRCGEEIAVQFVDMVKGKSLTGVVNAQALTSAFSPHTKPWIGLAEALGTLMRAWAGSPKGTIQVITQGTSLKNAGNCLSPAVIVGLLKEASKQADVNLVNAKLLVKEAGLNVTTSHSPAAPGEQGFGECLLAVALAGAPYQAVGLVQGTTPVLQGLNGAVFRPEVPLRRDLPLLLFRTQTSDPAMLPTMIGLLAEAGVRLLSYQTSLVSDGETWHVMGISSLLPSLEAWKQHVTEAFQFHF
The settings on record: Comp; protein PHGDH O43175.

Experiment [12] concerns the target proteins of HEK293T cells transiently overexpressing caspase-6 (Homo sapiens, UniProt Q9H307).
Experiment [13] deals with proteins of HEK293T cells transiently overexpressing caspase-6 (Homo sapiens, UniProt P23526). The note with it: Comp; protein AHCY P23526.
Where [14] appears, read: protein PNN (Q9H307), Exp Comp, analysis C6, p 0.5000, 2 peptides.

Regarding `C=CS(=O)(=O)N1C[C@H](C(=O)Nc2ccc(OC(F)(F)F)cc2)C[C@@H](c2ccccc2)C1` [3a], the enrich.exp.med is 0.6915 in [1]; 0.7351 in experiment [2]; 0.7588 in experiment [3]; 0.7926 in [4]; 0.6768 in [5]; 0.6349 in [6]. Also, the enrich.exp.med amounted to 0.7694 in [7]; 0.7909 in experiment [8]; 0.5876 in experiment [9]; 0.6264 in experiment [10]; 0.8298 in [11]; 1.018 in [12] (Comp, protein PNN Q9H307). Also, the enrich.exp.med in experiment [13] is recorded as 0.6961. In experiment [12] (setting [14]), this compound came in with an enrich.exp.med.lin of 2.025. For the same compound, in experiment [12] (setting [14]), the enrich.exp.med.log2 was 1.018.
